Measurements: patent publication US9181235B2, “Substituted pyridines for modulating the WNT signaling pathway” (NOVARTIS AG, priority 2010, dated 2015)
pIC50: −log10 of the molar value.

Experiments:
Wnt signaling = assay: Wnt-Luc reporter assay for pathway inhibition of Wnt signaling; format: cell-based, mouse (TM3 Wnt-Luc) or human (293 Wnt-Luc); not stated which; details: Wnt-Luc reporter cells co-cultured with L-cell Wnt3a cells, 24 hours
How it was run: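 Stable STF (Wnt-responsive luciferase) reporter lines, mouse TM3 or human HEK293, co-cultured with Wnt3a-producing L-cells in DMEM with 2% FBS and treated with compound for 24 h. Firefly luciferase read by Bright-Glo; IC50 taken as concentration giving 50% reduction in luminescence.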

[1] = Comparative stability in simulated gastric fluid (SGF), degradation by LCMS; format: physicochemical; details: 50° C. SGF, LCMS UV peak areas at 254 nm
Experimental: The stability of exemplified compounds of the invention were compared with N-(hetero)aryl, 2-(heteroy)aryl-substituted acetamides. Test compounds were dissolved or suspended in a specified media (e.g. simulated gastric fluid (SGF)). The resulting solution or suspension was kept at the testing temperature (e.g. 50° C.) for a given time (e.g. 4 hours), and the extent of degradation was quantified by LCMS using the respective UV absorption peak areas at 254 nm.

[2] = luciferase signal reduced by 50%

Row | SMILES | pIC50 (Wnt signaling; [2]) | pIC50 (Wnt signaling; Table 2) | also measured
1 | Cc1cc(-n2ccc(CNC(=O)c3ccc(-c4cccc(F)c4)cn3)cc2=O)ccn1 [compound 91, 5-(3-fluorophenyl)-N-{[1-(2-methylpyridin-4-yl)-2-oxo-1,2-dihydropyridin-4-yl]methyl}pyridine-2-carboxamide] | 8.42 | – | –
2 | Cc1cn(-c2ccc(CNC(=O)c3ccc(-c4ccccc4)cc3)cc2)cn1 [compound 92, N-(4-(4-methyl-1H-imidazol-1-yl)benzyl)biphenyl-4-carboxamide] | 9.30 | – | –
3 | O=C(NCC1CCN(C(=O)c2ccnc(F)c2)CC1)c1ccc(-c2cccc(F)c2)nc1 [compound 93, N-((1-(2-Fluoroisonicotinoyl)piperidin-4-yl)methyl)-6-(3-fluorophenyl)nicotinamide] | 7.04 | – | –
4 | O=C(NCC1CN(C(=O)c2ccnc(F)c2)C1)c1ccc(-c2cccc(F)c2)nc1 [compound 94, 6-(3-fluorophenyl)-N-({1-[(2-fluoropyridin-4-yl)carbonyl]azetidin-3-yl}methyl)pyridine-3-carboxamide] | 6.54 | – | –
5 | Cc1cc(-c2ccc(CNC(=O)c3ccc(Oc4ccccc4)nc3)cn2)ccn1 [compound 95, N-((2′-methyl-[2,4′-bipyridin]-5-yl)methyl)-6-phenoxynicotinamide] | 6.38 | – | –
6 | Cc1cc(C(=O)NCc2cnc(-c3ccnc(C(F)(F)F)c3)c(C)c2)ncc1-c1ncccc1C [compound 96] | – | < 5.70 | –
7 | Cc1cc(-c2ncc(CNC(=O)c3cc(C)c(-c4cccc(F)c4)cn3)cc2C)ccn1 [compound 97] | – | < 5.74 | –
8 | Cc1cc(C(=O)NCc2cnc(-c3ccnc(C(F)(F)F)c3)c(C)c2)ncc1-c1cccnc1C [compound 98] | – | < 5.92 | –
9 | Cc1cc(C(=O)NCc2cnc(-c3ccnc(C(F)(F)F)c3)c(C)c2)ncc1-c1cccc(F)c1C [compound 99] | – | 5.96 | –
10 | CC(=O)N1CCN(c2ccc(C(=O)NCc3ccc(-c4ccnnc4)cc3)cc2)CC1 [compound 100] | – | < 4.70 | –
11 | Cc1cc(-c2ncc(CNC(=O)c3ccc(-c4cnccn4)cn3)cc2F)ccn1 [drawing 199] | – | – | % degradn. @ 4 hr [1]: ~0%; % degradn. @ 8 hr [1]: ~0. %; % degradn. @ 24 hr [1]: ~0%
12 | Cc1cc(CNC(=O)c2ccc(-c3cnccn3)cn2)cnc1-c1ccnc(C(F)(F)F)c1 [drawing 200] | – | – | % degradn. @ 24 hr [1]: ~0%
13 | O=C(Cc1ccc(-c2ccnnc2)c(C(F)(F)F)c1)Nc1ccc(-c2cccnn2)cn1 [reference compound] | – | – | % degradn. @ 4 hr [1]: 11.5%; % degradn. @ 8 hr [1]: 16.6%; % degradn. @ 24 hr [1]: 26.7%
14 | Cc1cc(CC(=O)Nc2ccc(-c3cccc(F)c3)cn2)cnc1-c1ccnnc1 [reference compound] | – | – | % degradn. @ 24 hr [1]: 25.0%
